Read-outs that look alike come from different tables or passages of the source.
Key:
CDK18/Cyclin Y = CDK18/Cyclin Y (Homo sapiens, UniProt Q07002); test: NanoBRET live-cell target engagement, CDK18-NanoLuc/Cyclin Y in HEK-293; format: binding; conditions: 10µM, read-out: CDK18/Y Inhibition at 10µM (%)
CDK3/Cyclin E1 = CDK3/Cyclin E1 (Homo sapiens, UniProt Q00526); test: NanoBRET live-cell target engagement, CDK3-NanoLuc/Cyclin E1 in HEK-293; format: binding; conditions: 10µM, read-out: CDK3/E1 Inhibition at 10µM (%)
CDK17/Cyclin Y = CDK17/Cyclin Y (Homo sapiens, UniProt Q00537); test: NanoBRET live-cell target engagement, CDK17-NanoLuc/Cyclin Y in HEK-293; format: binding; conditions: 10µM, read-out: CDK17/Y Inhibition at 10µM (%)
Chain of CDK17/Cyclin Y (Q00537 whole entry): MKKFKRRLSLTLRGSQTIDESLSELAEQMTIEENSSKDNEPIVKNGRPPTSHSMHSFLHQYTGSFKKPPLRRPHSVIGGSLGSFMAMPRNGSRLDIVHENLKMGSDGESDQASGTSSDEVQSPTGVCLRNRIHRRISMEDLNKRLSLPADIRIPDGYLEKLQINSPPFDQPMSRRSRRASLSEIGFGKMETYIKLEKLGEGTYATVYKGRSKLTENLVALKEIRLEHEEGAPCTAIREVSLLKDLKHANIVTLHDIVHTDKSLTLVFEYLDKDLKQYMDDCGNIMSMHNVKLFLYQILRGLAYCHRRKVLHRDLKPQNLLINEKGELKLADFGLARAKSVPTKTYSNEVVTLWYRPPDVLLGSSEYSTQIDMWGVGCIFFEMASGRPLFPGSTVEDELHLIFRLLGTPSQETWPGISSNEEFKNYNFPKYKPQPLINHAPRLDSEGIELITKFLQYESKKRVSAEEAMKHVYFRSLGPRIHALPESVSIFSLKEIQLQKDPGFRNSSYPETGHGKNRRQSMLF
Chain of CDK17/Cyclin Y (Q8ND76 whole entry partner): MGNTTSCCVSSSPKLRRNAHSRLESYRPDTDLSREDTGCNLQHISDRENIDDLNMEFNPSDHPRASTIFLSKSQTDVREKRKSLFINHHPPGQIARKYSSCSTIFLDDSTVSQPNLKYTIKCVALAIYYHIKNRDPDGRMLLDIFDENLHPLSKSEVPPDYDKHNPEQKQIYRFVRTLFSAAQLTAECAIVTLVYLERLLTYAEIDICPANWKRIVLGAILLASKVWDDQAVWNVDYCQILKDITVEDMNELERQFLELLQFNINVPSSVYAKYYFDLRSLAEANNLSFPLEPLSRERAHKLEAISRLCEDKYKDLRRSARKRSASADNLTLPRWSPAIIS

CDK11B/Cyclin L2 = CDK11B/Cyclin L2 (Homo sapiens, UniProt P21127); test: NanoBRET live-cell target engagement, CDK11B-NanoLuc/Cyclin L2 in HEK-293; format: binding; conditions: 10µM, read-out: CDK11b/L2 Inhibition at 10µM (%)
Chain of CDK11B/Cyclin L2 (P21127 1-782 isoform P21127-2): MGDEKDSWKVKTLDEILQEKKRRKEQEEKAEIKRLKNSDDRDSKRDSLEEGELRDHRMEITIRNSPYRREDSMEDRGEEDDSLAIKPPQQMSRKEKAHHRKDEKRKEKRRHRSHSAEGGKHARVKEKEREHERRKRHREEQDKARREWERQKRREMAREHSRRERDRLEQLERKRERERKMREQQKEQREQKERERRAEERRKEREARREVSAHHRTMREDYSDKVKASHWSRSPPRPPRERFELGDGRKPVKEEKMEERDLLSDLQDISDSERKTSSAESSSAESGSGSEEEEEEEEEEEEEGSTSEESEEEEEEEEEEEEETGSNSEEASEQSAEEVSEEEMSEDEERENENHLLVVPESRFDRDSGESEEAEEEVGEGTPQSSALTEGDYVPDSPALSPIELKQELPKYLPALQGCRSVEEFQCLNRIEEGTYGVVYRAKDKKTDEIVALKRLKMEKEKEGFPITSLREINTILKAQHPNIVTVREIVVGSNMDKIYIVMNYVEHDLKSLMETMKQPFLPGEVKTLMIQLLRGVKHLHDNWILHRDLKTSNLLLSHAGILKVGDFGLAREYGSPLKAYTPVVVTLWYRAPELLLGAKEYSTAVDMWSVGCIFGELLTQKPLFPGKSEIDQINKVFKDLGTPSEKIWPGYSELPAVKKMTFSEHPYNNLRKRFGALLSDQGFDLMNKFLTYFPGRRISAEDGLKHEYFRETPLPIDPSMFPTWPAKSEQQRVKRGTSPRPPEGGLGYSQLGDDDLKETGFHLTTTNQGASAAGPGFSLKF

CDK20/Cyclin H = CDK20/Cyclin H (Homo sapiens, UniProt Q8IZL9); test: NanoBRET live-cell target engagement, NanoLuc-CDK20/Cyclin H in HEK-293; format: binding; conditions: 10µM, read-out: CDK20/H Inhibition at 10µM (%)
CDK16/Cyclin Y = CDK16/Cyclin Y (Homo sapiens, UniProt Q00536); test: NanoBRET live-cell target engagement, CDK16-NanoLuc/Cyclin Y in HEK-293; format: binding; conditions: 10µM, read-out: CDK16/Y Inhibition at 10µM (%)
CDK12/Cyclin K = CDK12/Cyclin K (Homo sapiens, UniProt Q9NYV4); test: NanoBRET live-cell target engagement, CDK12-NanoLuc/Cyclin K in HEK-293; format: binding; conditions: 10µM, read-out: CDK12/K Inhibition at 10µM (%)
CDK8/Cyclin C = CDK8/Cyclin C (Homo sapiens, UniProt P49336); test: NanoBRET live-cell target engagement, NanoLuc-CDK8/Cyclin C in HEK-293; format: binding; conditions: 10µM, read-out: CDK8/C Inhibition at 10µM (%)
CDK15/Cyclin Y = CDK15/Cyclin Y (Homo sapiens, UniProt Q96Q40); test: NanoBRET live-cell target engagement, NanoLuc-CDK15/Cyclin Y in HEK-293; format: binding; conditions: 10µM, read-out: CDK15/Y Inhibition at 10µM (%)
Chain of CDK15/Cyclin Y (Q96Q40 whole entry): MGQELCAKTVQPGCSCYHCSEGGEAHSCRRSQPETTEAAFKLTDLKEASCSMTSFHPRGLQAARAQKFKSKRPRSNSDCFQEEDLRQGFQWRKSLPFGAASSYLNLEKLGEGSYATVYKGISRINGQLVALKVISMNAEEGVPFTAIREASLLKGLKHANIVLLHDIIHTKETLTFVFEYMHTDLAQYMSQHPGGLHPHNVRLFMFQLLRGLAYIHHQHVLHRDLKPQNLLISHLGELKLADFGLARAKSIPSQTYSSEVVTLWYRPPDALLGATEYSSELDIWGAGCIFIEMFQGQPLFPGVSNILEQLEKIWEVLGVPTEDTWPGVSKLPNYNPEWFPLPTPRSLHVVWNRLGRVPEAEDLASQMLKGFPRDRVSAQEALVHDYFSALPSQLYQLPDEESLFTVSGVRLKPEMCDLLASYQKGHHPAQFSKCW
Chain of CDK15/Cyclin Y (Q8ND76 whole entry partner): as the sequence (Q8ND76 whole entry partner) above

CDK10/Cyclin L2 = CDK10/Cyclin L2 (Homo sapiens, UniProt Q15131); test: NanoBRET live-cell target engagement, CDK10-NanoLuc/Cyclin L2 in HEK-293; conditions: read-out: CDK10/L2 Inhibition at 10µM (%), 10µM
CDK13/Cyclin K = CDK13/Cyclin K (Homo sapiens, UniProt Q14004); test: NanoBRET live-cell target engagement, CDK13-NanoLuc/Cyclin K in HEK-293; format: binding; conditions: 10µM, read-out: CDK13/K Inhibition at 10µM (%)
CDK19/Cyclin C = CDK19/Cyclin C (Homo sapiens, UniProt Q9BWU1); test: NanoBRET live-cell target engagement, NanoLuc-CDK19/Cyclin C in HEK-293; conditions: read-out: CDK19/C Inhibition at 10µM (%), 10µM
Chain of CDK19/Cyclin C (Q9BWU1 whole entry): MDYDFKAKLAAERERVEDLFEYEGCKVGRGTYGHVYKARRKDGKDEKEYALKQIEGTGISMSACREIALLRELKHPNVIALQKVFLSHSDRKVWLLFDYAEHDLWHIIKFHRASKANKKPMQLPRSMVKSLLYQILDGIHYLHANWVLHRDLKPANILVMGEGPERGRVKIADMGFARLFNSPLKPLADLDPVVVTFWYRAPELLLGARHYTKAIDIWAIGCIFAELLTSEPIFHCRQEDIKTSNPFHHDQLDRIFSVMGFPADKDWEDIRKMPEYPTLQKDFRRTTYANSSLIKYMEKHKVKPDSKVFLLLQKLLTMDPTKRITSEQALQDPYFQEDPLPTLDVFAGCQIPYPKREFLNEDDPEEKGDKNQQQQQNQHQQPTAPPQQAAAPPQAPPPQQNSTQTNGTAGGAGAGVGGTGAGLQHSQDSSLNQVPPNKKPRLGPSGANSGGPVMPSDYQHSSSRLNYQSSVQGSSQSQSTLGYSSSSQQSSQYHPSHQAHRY
Chain of CDK19/Cyclin C (P24863 whole entry partner): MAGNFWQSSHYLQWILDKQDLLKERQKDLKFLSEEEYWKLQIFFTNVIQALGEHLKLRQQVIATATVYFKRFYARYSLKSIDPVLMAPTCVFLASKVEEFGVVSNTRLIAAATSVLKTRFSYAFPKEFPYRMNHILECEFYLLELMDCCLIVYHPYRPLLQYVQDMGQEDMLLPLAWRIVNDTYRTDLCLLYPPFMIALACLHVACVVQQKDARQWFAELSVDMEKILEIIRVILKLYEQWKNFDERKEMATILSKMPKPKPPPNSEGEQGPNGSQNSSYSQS

CDK2/Cyclin E1 = CDK2/Cyclin E1 (Homo sapiens, UniProt P24941); test: NanoBRET live-cell target engagement, CDK2-NanoLuc/Cyclin E1 in HEK-293; format: binding; conditions: 10µM, read-out: CDK2/E1 Inhibition at 10µM (%)
CDK5/CDK5R1 = CDK5/CDK5R1 (Homo sapiens, UniProt Q00535); test: NanoBRET live-cell target engagement, CDK5-NanoLuc/CDK5R1 in HEK-293; format: binding; conditions: 10µM, read-out: CDK5/CDK5R1 Inhibition at 10µM (%)
Chain of CDK5/CDK5R1 (Q00535 whole entry): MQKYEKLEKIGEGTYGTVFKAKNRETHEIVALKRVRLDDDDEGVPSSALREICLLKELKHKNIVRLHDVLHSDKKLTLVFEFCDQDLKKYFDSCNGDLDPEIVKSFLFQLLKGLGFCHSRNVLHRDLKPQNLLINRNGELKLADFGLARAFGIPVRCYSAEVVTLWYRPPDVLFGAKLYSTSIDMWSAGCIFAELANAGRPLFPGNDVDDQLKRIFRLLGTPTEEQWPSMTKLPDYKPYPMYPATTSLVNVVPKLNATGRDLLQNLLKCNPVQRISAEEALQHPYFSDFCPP
Chain of CDK5/CDK5R1 (Q15078 whole entry partner): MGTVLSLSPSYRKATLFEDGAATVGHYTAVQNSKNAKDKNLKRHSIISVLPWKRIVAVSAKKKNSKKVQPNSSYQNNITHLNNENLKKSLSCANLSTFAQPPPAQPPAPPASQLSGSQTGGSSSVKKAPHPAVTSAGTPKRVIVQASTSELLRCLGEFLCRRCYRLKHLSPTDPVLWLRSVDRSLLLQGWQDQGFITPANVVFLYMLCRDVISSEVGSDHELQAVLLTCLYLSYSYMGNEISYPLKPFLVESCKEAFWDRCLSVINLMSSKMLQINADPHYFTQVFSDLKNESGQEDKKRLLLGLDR

CDK9/Cyclin K = CDK9/Cyclin K (Homo sapiens, UniProt P50750); test: NanoBRET live-cell target engagement, NanoLuc-CDK9/Cyclin K in HEK-293; format: binding; conditions: 10µM, read-out: CDK9/K Inhibition at 10µM (%)
CDK11A/Cyclin L2 = biological target: T1, CDK11A/Cyclin L2 (Homo sapiens, UniProt Q9UQ88); test: NanoBRET live-cell target engagement, CDK11A-NanoLuc/Cyclin L2 in HEK-293; format: binding; conditions: 10µM, read-out: CDK11a/L2 Inhibition at 10µM (%)
T1 sequence (Q9UQ88 1-783): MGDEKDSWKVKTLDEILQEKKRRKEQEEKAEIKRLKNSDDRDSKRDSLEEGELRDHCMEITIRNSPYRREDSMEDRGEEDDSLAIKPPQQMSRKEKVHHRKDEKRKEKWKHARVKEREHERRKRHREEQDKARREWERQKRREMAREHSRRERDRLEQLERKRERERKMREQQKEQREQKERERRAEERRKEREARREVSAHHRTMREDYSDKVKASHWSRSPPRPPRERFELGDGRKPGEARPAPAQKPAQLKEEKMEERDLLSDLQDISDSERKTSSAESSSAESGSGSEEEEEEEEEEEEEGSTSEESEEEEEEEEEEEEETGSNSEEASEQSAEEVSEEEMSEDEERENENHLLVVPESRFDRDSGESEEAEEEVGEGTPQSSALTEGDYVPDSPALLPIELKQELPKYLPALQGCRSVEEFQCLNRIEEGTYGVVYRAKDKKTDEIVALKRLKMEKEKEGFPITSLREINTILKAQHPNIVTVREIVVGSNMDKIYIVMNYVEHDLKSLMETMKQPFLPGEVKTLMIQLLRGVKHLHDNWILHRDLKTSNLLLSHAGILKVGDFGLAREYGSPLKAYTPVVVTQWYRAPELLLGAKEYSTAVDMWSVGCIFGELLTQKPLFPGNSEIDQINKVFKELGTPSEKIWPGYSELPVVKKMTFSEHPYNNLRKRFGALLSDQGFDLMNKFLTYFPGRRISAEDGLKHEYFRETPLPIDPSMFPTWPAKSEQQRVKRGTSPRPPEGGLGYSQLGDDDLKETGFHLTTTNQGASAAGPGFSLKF

CDK6/Cyclin D1 = CDK6/Cyclin D1 (Homo sapiens, UniProt Q00534); test: NanoBRET live-cell target engagement, NanoLuc-CDK6/Cyclin D1 in HEK-293; format: binding; conditions: 10µM, read-out: CDK6/D1 Inhibition at 10µM (%)
Chain of CDK6/Cyclin D1 (Q00534 whole entry): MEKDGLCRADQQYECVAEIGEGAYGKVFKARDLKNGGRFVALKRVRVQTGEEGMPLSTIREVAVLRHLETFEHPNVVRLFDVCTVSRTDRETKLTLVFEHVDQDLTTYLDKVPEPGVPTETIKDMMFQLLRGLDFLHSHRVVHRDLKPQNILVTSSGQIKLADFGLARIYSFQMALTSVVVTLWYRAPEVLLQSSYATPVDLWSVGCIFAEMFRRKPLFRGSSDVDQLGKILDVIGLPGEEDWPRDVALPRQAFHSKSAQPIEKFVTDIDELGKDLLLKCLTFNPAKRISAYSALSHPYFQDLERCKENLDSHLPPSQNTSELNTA
Chain of CDK6/Cyclin D1 (P24385 whole entry partner): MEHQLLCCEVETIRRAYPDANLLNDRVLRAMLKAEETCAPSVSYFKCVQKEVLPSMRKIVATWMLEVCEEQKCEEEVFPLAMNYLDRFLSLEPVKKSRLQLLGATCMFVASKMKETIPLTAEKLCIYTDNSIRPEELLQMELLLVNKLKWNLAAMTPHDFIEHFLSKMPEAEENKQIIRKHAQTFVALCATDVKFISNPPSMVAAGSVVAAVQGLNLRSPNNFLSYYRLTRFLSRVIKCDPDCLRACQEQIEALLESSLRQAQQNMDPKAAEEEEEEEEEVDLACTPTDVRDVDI

CDK1/Cyclin E1 = CDK1/Cyclin E1 (Homo sapiens, UniProt P06493); test: NanoBRET live-cell target engagement, CDK1-NanoLuc/Cyclin E1 in HEK-293; format: binding; conditions: 10µM, read-out: CDK1/E1 Inhibition at 10µM (%)
CDK4/Cyclin D1 = CDK4/Cyclin D1 (Homo sapiens, UniProt P11802); test: NanoBRET live-cell target engagement, NanoLuc-CDK4/Cyclin D1 in HEK-293; format: binding; conditions: 10µM, read-out: CDK4/D1 Inhibition at 10µM (%)

Chain of CDK18/Cyclin Y (Q07002 whole entry): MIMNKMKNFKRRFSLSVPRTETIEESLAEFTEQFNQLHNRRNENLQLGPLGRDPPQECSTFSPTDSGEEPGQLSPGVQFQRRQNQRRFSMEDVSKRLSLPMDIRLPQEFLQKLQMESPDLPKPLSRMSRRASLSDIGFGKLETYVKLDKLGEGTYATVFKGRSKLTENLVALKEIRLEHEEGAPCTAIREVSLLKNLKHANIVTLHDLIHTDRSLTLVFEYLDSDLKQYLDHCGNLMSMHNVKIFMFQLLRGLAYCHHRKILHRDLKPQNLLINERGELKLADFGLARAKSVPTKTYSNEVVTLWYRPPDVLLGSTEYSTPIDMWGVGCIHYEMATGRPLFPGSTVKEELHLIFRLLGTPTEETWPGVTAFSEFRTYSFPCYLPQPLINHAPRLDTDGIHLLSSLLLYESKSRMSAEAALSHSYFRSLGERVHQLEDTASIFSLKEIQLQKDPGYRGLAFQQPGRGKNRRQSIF
Chain of CDK18/Cyclin Y (Q8ND76 whole entry partner): as the sequence (Q8ND76 whole entry partner) above

SMILES: CC(C)[C@H](CO)Nc1nc(Nc2ccc(C(=O)O)c(Cl)c2)c2ncn(C(C)C)c2n1 [Purvalanol B]
- inhibition at 10 µM (CDK18/Cyclin Y; average of experiments): 5.4%
- inhibition at 10 µM (CDK18/Cyclin Y; independent experiment 1): -4.7%
- inhibition at 10 µM (CDK18/Cyclin Y; independent experiment 2): 15.4%
- inhibition at 10 µM (CDK3/Cyclin E1; average of experiments): 39.4%
- inhibition at 10 µM (CDK3/Cyclin E1; independent experiment 1): 41.5%
- inhibition at 10 µM (CDK3/Cyclin E1; independent experiment 2): 37.2%
- inhibition at 10 µM (CDK17/Cyclin Y; average of experiments): 2.5%
- inhibition at 10 µM (CDK17/Cyclin Y; independent experiment 1): 0.32%
- inhibition at 10 µM (CDK17/Cyclin Y; independent experiment 2): 4.7%
- inhibition at 10 µM (CDK11B/Cyclin L2; average of experiments): 3.9%
- inhibition at 10 µM (CDK11B/Cyclin L2; independent experiment 1): 7.1%
- inhibition at 10 µM (CDK11B/Cyclin L2; independent experiment 2): 0.8%
- inhibition at 10 µM (CDK20/Cyclin H; independent experiment 1): -3.3%
- inhibition at 10 µM (CDK20/Cyclin H; independent experiment 2): -1.2%
- inhibition at 10 µM (CDK16/Cyclin Y; independent experiment 1): 11.3%
- inhibition at 10 µM (CDK16/Cyclin Y; independent experiment 2): -5.5%
- inhibition at 10 µM (CDK12/Cyclin K; average of experiments): 1.7%
- inhibition at 10 µM (CDK12/Cyclin K; independent experiment 1): 4.5%
- inhibition at 10 µM (CDK12/Cyclin K; independent experiment 2): -1.1%
- inhibition at 10 µM (CDK8/Cyclin C; average of experiments): 1.6%
- inhibition at 10 µM (CDK8/Cyclin C; independent experiment 1): 3.2%
- inhibition at 10 µM (CDK8/Cyclin C; independent experiment 2): -0.0599%
- inhibition at 10 µM (CDK15/Cyclin Y; average of experiments): 0.0365%
- inhibition at 10 µM (CDK15/Cyclin Y; independent experiment 1): 4.9%
- inhibition at 10 µM (CDK15/Cyclin Y; independent experiment 2): -4.9%
- inhibition at 10 µM (CDK10/Cyclin L2; average of experiments): -1.9%
- inhibition at 10 µM (CDK10/Cyclin L2; independent experiment 1): -2.4%
- inhibition at 10 µM (CDK10/Cyclin L2; independent experiment 2): -1.5%
- inhibition at 10 µM (CDK13/Cyclin K; average of experiments): 2.3%
- inhibition at 10 µM (CDK13/Cyclin K; independent experiment 1): 3%
- inhibition at 10 µM (CDK13/Cyclin K; independent experiment 2): 1.7%
- inhibition at 10 µM (CDK19/Cyclin C; average of experiments): 8%
- inhibition at 10 µM (CDK19/Cyclin C; independent experiment 1): 12.7%
- inhibition at 10 µM (CDK19/Cyclin C; independent experiment 2): 3.4%
- inhibition at 10 µM (CDK2/Cyclin E1; average of experiments): 66.9%
- inhibition at 10 µM (CDK2/Cyclin E1; independent experiment 1): 79.7%
- inhibition at 10 µM (CDK2/Cyclin E1; independent experiment 2): 54%
- inhibition at 10 µM (CDK5/CDK5R1; average of experiments): 63.7%
- inhibition at 10 µM (CDK5/CDK5R1; independent experiment 1): 36.3%
- inhibition at 10 µM (CDK5/CDK5R1; independent experiment 2): 91%
- inhibition at 10 µM (CDK9/Cyclin K; average of experiments): 8.4%
- inhibition at 10 µM (CDK9/Cyclin K; independent experiment 1): -0.3%
- inhibition at 10 µM (CDK9/Cyclin K; independent experiment 2): 17.1%
- inhibition at 10 µM (CDK11A/Cyclin L2; average of experiments): -4.5%
- inhibition at 10 µM (CDK11A/Cyclin L2; independent experiment 1): -2.4%
- inhibition at 10 µM (CDK11A/Cyclin L2; independent experiment 2): -6.6%
- inhibition at 10 µM (CDK6/Cyclin D1; average of experiments): -0.5%
- inhibition at 10 µM (CDK6/Cyclin D1; independent experiment 1): 5.9%
- inhibition at 10 µM (CDK6/Cyclin D1; independent experiment 2): -7%
- inhibition at 10 µM (CDK1/Cyclin E1; average of experiments): 21.2%
- inhibition at 10 µM (CDK1/Cyclin E1; independent experiment 1): 18.1%
- inhibition at 10 µM (CDK1/Cyclin E1; independent experiment 2): 24.3%
- inhibition at 10 µM (CDK4/Cyclin D1; average of experiments): -37.2%
- inhibition at 10 µM (CDK4/Cyclin D1; independent experiment 1): 8.3%
- inhibition at 10 µM (CDK4/Cyclin D1; independent experiment 2): -82.7%
